Data as given in US8569267B2, “Tetracyclic tetrahydrofuran derivatives containing cyclic amine side chain” (Janssen Pharmaceutica, NV, priority 2005, dated 2013).

Assays:
[1] = target: T1, human Dopamine D2L receptor (Homo sapiens, UniProt P14416); test: In vitro binding affinity for human D2L receptor ([3H]Spiperone binding); details: human D2L receptor-transfected CHO cell membranes; for IC50: read-out: D2L pIC50 (converted)
T1 construct: expressed in transfected cells; host or cells: CHO cells
In short: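 Competition curves were expressed as percent specific binding, measured by scintillation counting after filtration onto GF/B filters and ice-cold Tris washes. Test compounds competed with [3H]Spiperone, added from a 2 nmol/L dilution, for 30 min at 37° C on transfected CHO membranes in pH 7.7 Tris-HCl salt buffer. Butaclamol at 10^−6 mol/l final marked non-specific binding.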

[2] = target: T2, human cloned 5-HT2C receptor, expressed in CHO cells (Homo sapiens, UniProt P28335); test: In vitro binding affinity for 5-HT2C receptor ([3H]mesulergine radioligand binding); details: human cloned 5-HT2C receptor; for IC50: read-out: 5-HT2C pIC50 (converted)
T2 construct: expressed in transfected cells; host or cells: CHO cells
T2 sequence (P28335 33-458): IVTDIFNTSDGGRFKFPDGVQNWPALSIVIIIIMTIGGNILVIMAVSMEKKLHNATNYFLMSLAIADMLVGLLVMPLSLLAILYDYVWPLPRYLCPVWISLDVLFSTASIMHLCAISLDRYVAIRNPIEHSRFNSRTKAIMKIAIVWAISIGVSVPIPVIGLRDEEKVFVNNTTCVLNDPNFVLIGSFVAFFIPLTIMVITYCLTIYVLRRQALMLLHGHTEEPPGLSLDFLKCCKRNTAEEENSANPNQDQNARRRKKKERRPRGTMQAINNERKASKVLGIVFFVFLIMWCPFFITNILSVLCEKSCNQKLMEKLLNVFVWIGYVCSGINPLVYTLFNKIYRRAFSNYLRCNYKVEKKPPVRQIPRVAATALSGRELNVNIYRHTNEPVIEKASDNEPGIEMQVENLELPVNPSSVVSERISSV
In short: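 Receptor-bound radioligand counted after separation from unbound label once equilibrium is reached. Test compound added across a concentration range to tissue preparation plus radioligand; inhibition of binding reflects affinity and concentration.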

[3] = target: T3, human cloned 5-HT2A receptor, expressed in L929 cells (Homo sapiens, UniProt P28223); test: In vitro binding affinity for 5-HT2A receptor ([125I]R91150 radioligand binding); details: human cloned 5-HT2A receptor in L929 cells, [125I]R91150; for IC50: read-out: 5-HT2A pIC50 (converted)
T3 construct: expressed in transfected cells; host or cells: L929 cells
Procedure: In Vitro Binding Affinity for 5-HT2A and 5-HT2C Receptors
The interaction of the compounds of Formula (I) with 5-HT2A and 5-HT2C receptors was assessed in in vitro radioligand binding experiments. […] During the incubation, the radioligands bind to the receptor. When equilibrium of binding is reached, the receptor bound radioactivity is separated from the non-bound radioactivity, and the receptor bound activity is counted. The interaction of the test compounds with the receptors is assessed in competition binding experiments. Various concentrations of the test compound are added to the incubation mixture containing the tissue preparation and the radioligand. Binding of the radioligand will be inhibited by the test compound in proportion to its binding affinity and its concentration. The affinities of the compounds for the 5-HT2 receptors were measured by means of radioligand binding studies conducted with: (a) human cloned 5-HT2A receptor, expressed in L929 cells using [^125I]R91150 as radioligand and (b) human cloned 5-HT2C receptor, expressed in CHO cells using [^3H]mesulergine as radioligand.

[4] = target: T4, NET (norepinephrine transporter) (Rattus norvegicus, UniProt Q63380); test: In vitro determination of NET reuptake inhibition ([3H]Nixosetine binding, rat brain cortex); details: rat brain cortex; for IC50: read-out: NET pIC50 (converted)
T4 construct: Cortex from rat brain was collected and homogenised; from tissue; host or cells: rat brain cortex
In short: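 Competition curves and percentage specific binding came from scintillation counting of filter-trapped radioactivity. The membranes were rat cortical homogenate in pH 7.4 Tris buffer with 120 mM NaCl and 5 mM KCl. Test compounds competed with [3H]nisoxetine for binding.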

T4 sequence (Q63380 1-617): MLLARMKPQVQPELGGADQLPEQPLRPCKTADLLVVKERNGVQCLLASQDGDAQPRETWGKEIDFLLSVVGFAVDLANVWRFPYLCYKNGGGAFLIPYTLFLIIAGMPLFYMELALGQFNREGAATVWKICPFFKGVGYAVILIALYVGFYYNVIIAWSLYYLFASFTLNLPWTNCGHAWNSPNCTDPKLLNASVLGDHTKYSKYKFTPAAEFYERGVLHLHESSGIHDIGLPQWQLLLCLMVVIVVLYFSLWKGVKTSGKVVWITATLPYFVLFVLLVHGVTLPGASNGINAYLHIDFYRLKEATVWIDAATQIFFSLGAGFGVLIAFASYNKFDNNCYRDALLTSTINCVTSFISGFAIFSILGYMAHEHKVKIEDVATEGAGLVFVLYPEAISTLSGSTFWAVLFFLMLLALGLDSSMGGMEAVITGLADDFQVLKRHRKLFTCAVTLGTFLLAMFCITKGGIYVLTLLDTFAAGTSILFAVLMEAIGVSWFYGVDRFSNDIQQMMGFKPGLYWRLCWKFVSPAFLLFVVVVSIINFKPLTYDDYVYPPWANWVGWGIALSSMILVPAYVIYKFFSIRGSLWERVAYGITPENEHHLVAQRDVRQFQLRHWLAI
T3 sequence (P28223 whole entry): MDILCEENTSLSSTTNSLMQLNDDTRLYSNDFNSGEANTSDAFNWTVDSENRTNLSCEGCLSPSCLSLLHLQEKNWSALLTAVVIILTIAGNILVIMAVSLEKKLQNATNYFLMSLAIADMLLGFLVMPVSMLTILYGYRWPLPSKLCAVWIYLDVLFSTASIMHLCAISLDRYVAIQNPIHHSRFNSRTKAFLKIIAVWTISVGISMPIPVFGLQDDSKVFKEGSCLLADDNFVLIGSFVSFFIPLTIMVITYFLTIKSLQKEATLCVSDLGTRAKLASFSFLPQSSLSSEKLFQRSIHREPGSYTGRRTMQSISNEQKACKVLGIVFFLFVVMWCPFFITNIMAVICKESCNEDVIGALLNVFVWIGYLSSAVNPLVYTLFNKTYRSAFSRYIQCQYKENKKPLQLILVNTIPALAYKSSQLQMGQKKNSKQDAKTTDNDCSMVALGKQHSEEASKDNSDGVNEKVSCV
T1 sequence (P14416 whole entry): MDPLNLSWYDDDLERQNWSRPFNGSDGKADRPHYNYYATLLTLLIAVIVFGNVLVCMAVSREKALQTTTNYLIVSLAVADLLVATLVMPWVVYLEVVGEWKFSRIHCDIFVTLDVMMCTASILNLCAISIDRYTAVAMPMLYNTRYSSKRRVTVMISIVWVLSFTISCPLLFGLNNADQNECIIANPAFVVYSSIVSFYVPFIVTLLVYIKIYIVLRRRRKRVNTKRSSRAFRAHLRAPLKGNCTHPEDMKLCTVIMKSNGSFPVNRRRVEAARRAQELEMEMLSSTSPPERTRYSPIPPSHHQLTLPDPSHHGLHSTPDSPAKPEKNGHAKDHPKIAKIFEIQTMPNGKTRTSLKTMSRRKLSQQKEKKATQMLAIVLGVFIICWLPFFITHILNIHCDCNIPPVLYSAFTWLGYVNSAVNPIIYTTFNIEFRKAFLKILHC

SMILES	IC50 [1] [nM]	IC50 [2] [nM]	IC50 [3] [nM]	IC50 [4] [nM]	D2L pIC50 [1]	5-HT2C pIC50 [2]	5-HT2A pIC50 [3]	NET pIC50 [4]
O=C(C1CCN(CC2CC3c4ccccc4Cc4ccc(F)cc4C3O2)CC1)N1CC=CC1 (stereo not drawn) [Compound 201]	41.7	10.5	0.617	> 10000	–	–	–	–
CCOC(=O)C=C1CCN(CC2CC3c4ccccc4Cc4ccc(F)cc4C3O2)CC1 (stereo not drawn) [Compound 165]	38.9	27.5	10.7	3630	–	–	–	–
O=C(NC1CC1)N1CCN(CC2CC3c4ccccc4Cc4ccc(F)cc4C3O2)CC1 (stereo not drawn) [Compound 94, [2R-(2α, 3aα, 12bβ)]4-(11-fluoro-3,3a,8,12b-tetrahydro-2H-1-oxa-dibenzo[e,h]-azulen-2-ylmethyl)-piperazine-1-carboxylic acid cyclopropylamide.oxalate (1:1)]	35.5	2.19	0.389	10700	–	–	–	–
O=C(NC1CC1)C1CCN(CC2CC3c4ccccc4Cc4ccc(F)cc4C3O2)CC1 (stereo not drawn) [Compound 187]	18.2	1.15	0.427	> 10000	–	–	–	–
CCOC(=O)CNC(=O)NC1CCN(CC2CC3c4ccccc4Cc4ccc(F)cc4C3O2)CC1 (stereo not drawn) [Compound 242]	3.98	4.07	1.2	2880	–	–	–	–
COc1ccc(C)c(NC(=O)C2CCN(CC3CC4c5ccccc5Cc5ccc(F)cc5C4O3)CC2)c1 (stereo not drawn) [Compound 191]	11.7	3.47	< 10	9120	–	–	–	–
Fc1ccc(OCCN2CCN(CC3CC4c5ccccc5Cc5ccc(F)cc5C4O3)CC2)cc1 (stereo not drawn) [Compound 54]	2.45	8.13	7.59	2190	–	–	–	–
COc1cccc(N2CCN(CC3CC4c5ccccc5Cc5ccc(F)cc5C4O3)CC2)n1 (stereo not drawn) [Compound 118]	26.3	7.59	4.9	2820	–	–	–	–
O=C(OC1CCN(CC2CC3c4ccccc4Cc4ccc(F)cc4C3O2)C1)c1ccc(F)cc1 (mixture of isomers) [Compound 16]	5.13	2.82	5.62	2000	–	–	–	–
CSc1nccc(N2CCN(CC3CC4c5ccccc5Cc5ccc(F)cc5C4O3)CC2)n1 (stereo not drawn) [Compound 124]	47.9	30.9	8.91	2290	–	–	–	–
N#Cc1cccc(CN2CCN(CC3CC4c5ccccc5Cc5ccc(F)cc5C4O3)CC2)c1 (stereo not drawn) [Compound 70]	20.4	15.8	7.24	708	–	–	–	–
COc1ccc2c(c1)C1OC(CN3CCC(O)CC3)CC1c1ccccc1O2.O=C(O)C(=O)O (racemic) [Compound 288]	–	–	–	–	6.08	6.71	7.18	<5
C=CS(=O)(=O)N1CCN(CC2CC3c4ccccc4Cc4ccc(F)cc4C3O2)CC1 (stereo not drawn) [Compound 104]	30.9	28.2	8.32	> 10000	–	–	–	–
O=C(C1CCN(CC2CC3c4ccccc4Cc4ccc(F)cc4C3O2)CC1)N1CCN(c2cccc(Cl)c2)CC1 (stereo not drawn) [Compound 202]	24	8.13	3.47	1620	–	–	–	–
Fc1ccc2c(c1)C1OC(CN3CCN(Cc4ccoc4)CC3)CC1c1ccccc1C2.O=C(O)C(F)(F)F (stereo not drawn) [Compound 61, [2R-(2α, 3aα, 12bβ)]1-(11-fluoro-3,3a,8,12b-tetrahydro-2H-1-oxa-dibenzo[e,h]-azulen-2-ylmethyl)-4-furan-3-ylmethyl-piperazine.trifluoroacetate (1:1)]	–	–	–	–	8.09	7.66	8.03	5.88
Fc1ccc2c(c1)C1OC(CN3CCN(C(=S)NCc4ccccc4)CC3)CC1c1ccccc1C2 (stereo not drawn) [Compound 113]	50.1	24	11	2400	–	–	–	–
CC1CN(CC2CC3c4ccccc4Cc4ccc(F)cc4C3O2)C(C)CN1.O=C(O)C(=O)O (mixture of isomers) [Compound 280]	–	–	–	–	5.40	6.53	6.53	<5

SMILES	IC50 [1] [nM]	IC50 [2] [nM]	IC50 [3] [nM]	IC50 [4] [nM]	D2L pIC50 [1]	5-HT2C pIC50 [2]	5-HT2A pIC50 [3]	NET pIC50 [4]
O=C1CCN(C[C@H]2C[C@@H]3c4ccccc4Cc4ccc(F)cc4[C@@H]3O2)C1 [Compound 7, [2R-(2α, 3aα, 12bβ)]1-(11-fluoro-3,3a,8,12b-tetrahydro-2H-1-oxa-dibenzo[e,h]-azulen-2-ylmethyl)-pyrrolidin-3-one]	141	2.95	< 10	1620	–	–	–	–
C=CCN(C)C(=O)C1CCN(CC2CC3c4ccccc4Cc4ccc(F)cc4C3O2)CC1 (stereo not drawn) [Compound 177]	11.7	4.47	< 10	9770	–	–	–	–
OC(COc1ccc(F)cc1)CN1CCN(CC2CC3c4ccccc4Cc4ccc(F)cc4C3O2)CC1 (mixture of isomers) [Compound 57]	18.6	17.8	7.24	> 10000	–	–	–	–
CN1c2ccccc2C2CC(CN3CCC(O)C3)OC2c2ccccc21 (racemic) [Compound 263]	550	13.2	251	2880	–	–	–	–
CCOC(=O)CNC(=S)N1CCN(CC2CC3c4ccccc4Cc4ccc(F)cc4C3O2)CC1 (stereo not drawn) [Compound 110]	36.3	47.9	6.17	5750	–	–	–	–
CCNC(=O)N1CCN(C[C@H]2C[C@@H]3c4ccccc4Cc4ccc(F)cc4[C@@H]3O2)CC1 [Compound 86]	55	3.02	0.832	7080	–	–	–	–
CSc1ccc(NC(=O)C2CCN(CC3CC4c5ccccc5Cc5ccc(F)cc5C4O3)CC2)cc1 (stereo not drawn) [Compound 183]	25.7	1.15	< 10	> 10000	–	–	–	–
OCCC1CCN(CC2CC3c4ccccc4Cc4ccc(F)cc4C3O2)C1 (mixture of isomers) [Compound 6]	4.07	1.7	1.45	501	–	–	–	–
COc1ccc2c(c1)C1OC(CN3CCC(O)CC3)CC1c1ccccc1O2.O=C(O)C(=O)O (racemic) [Compound 287]	–	–	–	–	6.17	6.54	7.62	<5
COC1CCN(C[C@H]2C[C@@H]3c4ccccc4Cc4ccc(F)cc4[C@@H]3O2)C1 (stereo partly drawn) [Compound 4]	16.2	2.09	< 10	5890	–	–	–	–
OCC1CCCCN1CC1CC2c3ccccc3Cc3ccc(F)cc3C2O1 (mixture of isomers) [Compound 146]	81.3	11.5	16.6	> 10000	–	–	–	–
COC(=O)C1CCN(C[C@H]2C[C@@H]3c4ccccc4Cc4ccc(F)cc4[C@@H]3O2)C1 (stereo partly drawn) [Compound 12]	6.31	2.04	1.17	759	–	–	–	–
Fc1ccc2c(c1)C1OC(CN3CCN(Cc4cc5ccccc5o4)CC3)CC1c1ccccc1C2 (stereo not drawn) [Compound 64]	15.5	28.8	26.3	2690	–	–	–	–
Cc1ccc(S(=O)(=O)N2CCN(CC3CC4c5ccccc5Cc5ccc(F)cc5C4O3)CC2)cc1 (stereo not drawn) [Compound 107]	81.3	331	83.2	> 10000	–	–	–	–
Fc1ccc(OC2CCN(CC3CC4c5ccccc5Cc5ccc(F)cc5C4O3)C2)cc1 (mixture of isomers) [Compound 36]	21.9	4.68	12.3	4070	–	–	–	–
Fc1ccc2c(c1)C1OC(CN3CCN(Cc4cnc[nH]4)CC3)CC1c1ccccc1C2 (stereo not drawn) [Compound 66]	13.8	37.2	7.41	4370	–	–	–	–
